Measured values: US20140121370A1, “NOVEL METHOD FOR PREPARING CEFMENOXIME HYDROCHLORIDE COMPOUND” (Hainan Lingkang Pharmaceutical Co., Ltd., priority 2011, published 2014)
Structures can show the parent of a compound that is named as a salt.

Test: Solubility of Cefmenoxime hydrochloride in organic solvents
Type: physicochemical
Description: According to the instant invention, after the treatment of step 1), these impurities can be separated from Cefmenoxime hydrochloride.
Treating Cefmenoxime hydrochloride crude directly with a good-poor solvent precipitation method can not achieve the desired purity.

**Q.** What does the source list for `CO/N=C(\C(=O)N[C@@H]1C(=O)N2C(C(=O)O)=C(CSc3nnnn3C)CS[C@H]12)c1csc(N)n1` [Cefmenoxime hydrochloride, (6R,7R)-7-[(Z)-2-(2-amino-thiazol-4-yl)-2-methoxyiminoacetylamino]-3-[[(1-methyl-1H-tetrazol-5-yl)-sulfanyl]methyl]-8-oxo-5-thia-1-azabicyclo[4.2.0]oct-2-ene-2-carboxylic acid hydrochloride (2:1)]?
**A.** solubility in acetone (solvent acetone): almost insoluble; solubility in ethanol (solvent ethanol): almost insoluble; solubility in ethyl acetate (solvent ethyl acetate): almost insoluble; solubility in formamide (solvent formamide): soluble; solubility in methanol (solvent methanol): slightly soluble
